Assays:
[1] = tested on: Bel-7402; assay: Cytotoxicity against human Bel7402 cells after 72 hrs by MTT assay; type: functional, cell-based; conditions: Bel-7402, 72 h
[2] = tested on: HepG2; assay: Cytotoxicity against human HepG2 cells after 72 hrs by MTT assay; type: functional, cell-based; conditions: HepG2, 72 h
[3] = Cytotoxicity against human HL-7702 cells after 72 hrs by MTT assay; type: cell-based; conditions: L02, 72 h

SMILES | IC50 [1] [µM] | IC50 [2] [µM] | IC50 [3] [µM]
C[C@@H]1O[C@@H](O[C@H]2[C@H](O[C@H]3CO[C@@H](O[C@H]4CC[C@]5(C)[C@H]6CC[C@]78OC[C@@]9(CC[C@](C)(C=O)C[C@H]97)C(=O)C[C@@]8(C)[C@]6(C)CC[C@H]5C4(C)C)[C@H](O)[C@H]3O)O[C@H](CO)[C@@H](O)[C@@H]2O)[C@H](O)[C@H](O)[C@H]1O [ARDISIAMAMILLOSIDE H] | > 100 | > 100 | > 100
C[C@@H]1O[C@@H](O[C@H]2[C@H](O[C@H]3CO[C@@H](O[C@H]4CC[C@]5(C)[C@H]6CC[C@]78OC(=O)[C@@]9(CC[C@](C)(CO)C[C@H]97)[C@H](O)C[C@@]8(C)[C@]6(C)CC[C@H]5C4(C)C)[C@H](O[C@@H]4O[C@H](CO)[C@@H](O)[C@H](O)[C@H]4O)[C@H]3O)O[C@H](CO)[C@@H](O)[C@@H]2O)[C@H](O)[C@H](O)[C@H]1O [ARDISIANOSIDE I] | > 100 | > 100 | > 100
C[C@@H]1O[C@@H](O[C@H]2[C@H](O[C@H]3CO[C@@H](O[C@H]4CC[C@]5(C)[C@H]6CC[C@]78OC[C@@]9(CC[C@](C)(CO)C[C@H]97)[C@H](O)C[C@@]8(C)[C@]6(C)CC[C@H]5C4(C)C)[C@H](O[C@@H]4O[C@H](CO)[C@@H](O)[C@H](O)[C@H]4O)[C@H]3O)O[C@H](CO)[C@@H](O)[C@@H]2O)[C@H](O)[C@H](O)[C@H]1O [ARDISICRENOSIDE A] | > 100 | > 100 | > 100
CC1(C)CC[C@]23CO[C@@]4(CC[C@@H]5[C@@]6(C)CC[C@H](O[C@@H]7OC[C@H](O[C@@H]8O[C@H](CO)[C@@H](O)[C@H](O)[C@H]8O[C@@H]8OC[C@@H](O)[C@H](O)[C@H]8O)[C@H](O)[C@H]7O)C(C)(C)[C@@H]6CC[C@@]5(C)[C@]4(C)C[C@H]2O)[C@@H]3C1 [ARDISIANOSIDE D] | 14.8 | 31.2 | > 100
CC1(C)CC[C@]23CO[C@@]4(CC[C@@H]5[C@@]6(C)CC[C@H](O[C@@H]7OC[C@H](O[C@@H]8O[C@H](CO)[C@@H](O)[C@H](O)[C@H]8O)[C@H](O)[C@H]7O[C@@H]7O[C@H](CO)[C@@H](O)[C@H](O)[C@H]7O)C(C)(C)[C@@H]6CC[C@@]5(C)[C@]4(C)C[C@H]2O)[C@@H]3C1 | 4.18 | 14.4 | > 100
C[C@@H]1O[C@@H](O[C@H]2[C@H](O[C@H]3CO[C@@H](O[C@H]4CC[C@]5(C)[C@H]6CC[C@]78OC[C@@]9(CC[C@](C)(C=O)C[C@H]97)[C@H](O)C[C@@]8(C)[C@]6(C)CC[C@H]5C4(C)C)[C@H](O)[C@H]3O)O[C@H](CO)[C@@H](O)[C@@H]2O)[C@H](O)[C@H](O)[C@H]1O [CYCLAMIRETIN A] | > 100 | > 100 | > 100
C[C@@H]1O[C@@H](O[C@H]2[C@H](O[C@H]3CO[C@@H](O[C@H]4CC[C@]5(C)[C@H]6CC[C@]78OC[C@@]9(CCC(C)(C)C[C@H]97)[C@H](O)C[C@@]8(C)[C@]6(C)CC[C@H]5C4(C)C)[C@H](O)[C@H]3O)O[C@H](CO)[C@@H](O)[C@@H]2O)[C@H](O)[C@H](O)[C@H]1O [ARDISIANOSIDE C] | 4.14 | 13.6 | > 100
C[C@@H]1O[C@@H](O[C@H]2[C@H](O[C@H]3CO[C@@H](O[C@H]4CC[C@]5(C)[C@H]6CC=C7[C@@H]8C[C@@](C)(C(=O)O)CC[C@]8(CO)[C@H](O)C[C@@]7(C)[C@]6(C)CC[C@H]5C4(C)C)[C@H](O[C@@H]4O[C@H](CO)[C@@H](O)[C@H](O)[C@H]4O)[C@H]3O)O[C@H](CO)[C@@H](O)[C@@H]2O)[C@H](O)[C@H](O)[C@H]1O | > 100 | > 100 | > 100
C[C@@H]1O[C@@H](O[C@H]2[C@H](O[C@H]3CO[C@@H](O[C@H]4CC[C@]5(C)[C@H]6CC=C7[C@@H]8C[C@@](C)(CO)CC[C@]8(CO)[C@@H]8O[C@@H]8[C@@]7(C)[C@]6(C)CC[C@H]5C4(C)C)[C@H](O[C@@H]4O[C@H](CO)[C@@H](O)[C@H](O)[C@H]4O)[C@H]3O)O[C@H](CO)[C@@H](O)[C@@H]2O)[C@H](O)[C@H](O)[C@H]1O [ARDISIANOSIDE K] | > 100 | > 100 | > 100
CC1(C)[C@@H](O[C@@H]2OC[C@H](O[C@@H]3O[C@H](CO)[C@@H](O)[C@H](O[C@@H]4O[C@H](CO)[C@@H](O)[C@H](O)[C@H]4O)[C@H]3O[C@@H]3OC[C@@H](O)[C@H](O)[C@H]3O)[C@H](O)[C@H]2O[C@@H]2O[C@H](CO)[C@@H](O)[C@H](O)[C@H]2O)CC[C@]2(C)[C@H]3CC[C@]45OC[C@@]6(CC[C@](C)(C=O)C[C@H]64)[C@H](O)C[C@@]5(C)[C@]3(C)CC[C@@H]12 [CYCLAMIN] | 3.85 | 12.2 | > 100
CC1(C)[C@@H](O[C@@H]2OC[C@H](O[C@@H]3O[C@H](CO)[C@@H](O)[C@H](O)[C@H]3O[C@@H]3OC[C@@H](O)[C@H](O)[C@H]3O)[C@H](O)[C@H]2O)CC[C@]2(C)[C@H]3CC[C@]45OC[C@@]6(CC[C@](C)(C=O)C[C@H]64)[C@H](O)C[C@@]5(C)[C@]3(C)CC[C@@H]12 [PRIMULANIN] | 4.05 | > 100 | > 100
COC(OC)[C@@]1(C)CC[C@]23CO[C@@]4(CC[C@@H]5[C@@]6(C)CC[C@H](O[C@@H]7OC[C@H](O[C@@H]8O[C@H](CO)[C@@H](O)[C@H](O)[C@H]8O[C@@H]8O[C@@H](C)[C@H](O)[C@@H](O)[C@H]8O)[C@H](O)[C@H]7O)C(C)(C)[C@@H]6CC[C@@]5(C)[C@]4(C)C[C@H]2O)[C@@H]3C1 | > 100 | > 100 | > 100
C[C@@H]1O[C@@H](O[C@H]2[C@H](O[C@H]3CO[C@@H](O[C@H]4CC[C@]5(C)[C@H]6CC[C@]78OC[C@@]9(CC[C@](C)(C(=O)O)C[C@H]97)C(=O)C[C@@]8(C)[C@]6(C)CC[C@H]5C4(C)C)[C@H](O[C@@H]4O[C@H](CO)[C@@H](O)[C@H](O)[C@H]4O)[C@H]3O)O[C@H](CO)[C@@H](O)[C@@H]2O)[C@H](O)[C@H](O)[C@H]1O | > 100 | > 100 | > 100
CC1(C)CC[C@]23CO[C@@]4(CC[C@@H]5[C@@]6(C)CC[C@H](O[C@@H]7OC[C@H](O[C@@H]8O[C@H](CO)[C@@H](O)[C@H](O[C@@H]9O[C@H](CO)[C@@H](O[C@@H]%10O[C@H](CO)[C@@H](O)[C@H](O)[C@H]%10O)[C@H](O[C@@H]%10O[C@H](CO)[C@@H](O)[C@H](O)[C@H]%10O)[C@H]9O)[C@H]8O[C@@H]8OC[C@@H](O)[C@H](O)[C@H]8O)[C@H](O)[C@H]7O[C@@H]7O[C@H](CO)[C@@H](O)[C@H](O)[C@H]7O)C(C)(C)[C@@H]6CC[C@@]5(C)[C@]4(C)C[C@H]2O)[C@@H]3C1 [ARDISIANOSIDES A] | 1.37 | 3.83 | > 100
C[C@@H]1O[C@@H](O[C@H]2[C@H](O[C@H]3CO[C@@H](O[C@H]4CC[C@]5(C)[C@H]6CC=C7[C@@H]8C[C@@](C)(CO)CC[C@]8(CO)[C@H](O)C[C@@]7(C)[C@]6(C)CC[C@H]5C4(C)C)[C@H](O[C@@H]4O[C@H](CO)[C@@H](O)[C@H](O)[C@H]4O)[C@H]3O)O[C@H](CO)[C@@H](O)[C@@H]2O)[C@H](O)[C@H](O)[C@H]1O [ARDISIAMAMILLOSEDE C] | > 100 | > 100 | > 100
C[C@@H]1O[C@@H](O[C@H]2[C@H](O[C@H]3CO[C@@H](O[C@H]4CC[C@]5(C)[C@H]6CC[C@]78OC[C@@]9(CC[C@](C)(O)C[C@H]97)[C@H](O)C[C@@]8(C)[C@]6(C)CC[C@H]5C4(C)C)[C@H](O[C@@H]4O[C@H](CO)[C@@H](O)[C@H](O)[C@H]4O)[C@H]3O)O[C@H](CO)[C@@H](O)[C@@H]2O)[C@H](O)[C@H](O)[C@H]1O [ARDISIANOSIDE G] | > 100 | > 100 | > 100
CC1(C)CC[C@]23C(=O)O[C@@]4(CC[C@@H]5[C@@]6(C)CC[C@H](O[C@@H]7OC[C@H](O[C@@H]8O[C@H](CO)[C@@H](O)[C@H](O[C@@H]9O[C@H](CO)[C@@H](O[C@@H]%10O[C@H](CO)[C@@H](O)[C@H](O)[C@H]%10O)[C@H](O[C@@H]%10O[C@H](CO)[C@@H](O)[C@H](O)[C@H]%10O)[C@H]9O)[C@H]8O[C@@H]8OC[C@@H](O)[C@H](O)[C@H]8O)[C@H](O)[C@H]7O[C@@H]7O[C@H](CO)[C@@H](O)[C@H](O)[C@H]7O)C(C)(C)[C@@H]6CC[C@@]5(C)[C@]4(C)C[C@H]2O)[C@@H]3C1 [ARDISIANOSIDE H] | > 100 | > 100 | > 100
C[C@@H]1O[C@@H](O[C@H]2[C@H](O[C@H]3CO[C@@H](O[C@H]4CC[C@]5(C)[C@H]6CC[C@]78OC[C@@]9(CC[C@](C)(C=O)C[C@H]97)[C@H](O)C[C@@]8(C)[C@]6(C)CC[C@H]5C4(C)C)[C@H](O[C@@H]4O[C@H](CO)[C@@H](O)[C@H](O)[C@H]4O)[C@H]3O)O[C@H](CO)[C@@H](O)[C@@H]2O)[C@H](O)[C@H](O)[C@H]1O [ARDISIACRISPIN B] | 4.46 | 21 | > 100
